This is an account of results in patent US12441689B2 (EpiVario, Inc., priority 2019, dated 2025).

Bounds are passed on as bounds.

human ACSS2 protein, sequence (Q9NR19 whole entry): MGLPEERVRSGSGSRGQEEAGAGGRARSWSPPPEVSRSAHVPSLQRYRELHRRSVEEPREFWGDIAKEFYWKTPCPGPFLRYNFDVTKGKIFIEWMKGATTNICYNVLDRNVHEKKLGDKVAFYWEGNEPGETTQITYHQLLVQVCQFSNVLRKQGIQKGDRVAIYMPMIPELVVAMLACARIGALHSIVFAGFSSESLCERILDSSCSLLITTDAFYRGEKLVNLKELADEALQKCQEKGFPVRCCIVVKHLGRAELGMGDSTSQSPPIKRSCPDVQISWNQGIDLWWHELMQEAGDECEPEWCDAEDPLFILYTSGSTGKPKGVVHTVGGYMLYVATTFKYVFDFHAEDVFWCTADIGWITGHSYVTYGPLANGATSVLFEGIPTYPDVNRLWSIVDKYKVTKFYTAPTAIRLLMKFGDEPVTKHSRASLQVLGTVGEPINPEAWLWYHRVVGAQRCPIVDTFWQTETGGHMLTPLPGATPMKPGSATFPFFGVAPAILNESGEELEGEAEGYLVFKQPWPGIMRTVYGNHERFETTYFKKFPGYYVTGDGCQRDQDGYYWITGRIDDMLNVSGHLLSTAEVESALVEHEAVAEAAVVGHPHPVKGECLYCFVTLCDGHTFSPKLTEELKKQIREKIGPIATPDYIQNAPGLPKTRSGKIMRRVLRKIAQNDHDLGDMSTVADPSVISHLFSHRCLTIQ

The target of the experiment is human ACSS2 protein (Homo sapiens (Human), UniProt Q9NR19). As to the kind of experiment: ACSS2 Cell-Free Activity Assay (Cell-Free IC50). The following applies: 10 nM human ACSS2 protein, 90 minutes at 37 C, pyrophosphatase-coupled, Biomol Green absorbance at 620 nm; read-out: ACSS2 Biochemical IC50. The text has this:
ACSS2 Cell-Free Activity Assay (Cell-Free IC50)
As to `CCOc1c(C(=O)Nc2cccc(C(C)(F)F)c2)c(C)nn1-c1ccc(OC(F)F)cc1` [Compound 201, N-(3-(1,1-difluoroethyl)phenyl)-1-(4-(difluoromethoxy)phenyl)-5-ethoxy-3-methyl-1H-pyrazole-4-carboxamide], the IC50 is more than 100 nM.

Turning to `Cc1cc(C(=O)Nc2cccc(C(C)(F)F)c2)nc(-c2ccc(OC(F)F)c(-c3ccccc3)c2)n1` [Compound 130, N-(3-(1,1-difluoroethyl)phenyl)-2-(6-(difluoromethoxy)-[1,1′-biphenyl]-3-yl)-6-methylpyrimidine-4-carboxamide], the IC50 lay within 1 to 100 nM. The figure for `CCC(F)(F)c1cccc(NC(=O)c2oc(-c3ccc(OC(F)F)c(-c4ccccn4)c3)nc2C)c1` [Compound 214, 2-(4-(difluoromethoxy)-3-(pyridin-2-yl)phenyl)-N-(3-(1,1-difluoropropyl)phenyl)-4-methyloxazole-5-carboxamide] is more than 100 nM. The figure for `Cc1nn(-c2ccc(OC(F)F)cc2)c(OC(=O)N2CCN(C(C)(C)CO)CC2)c1C(=O)Nc1cccc(C(C)(F)F)c1` [Compound 185, 4-((3-(1,1-difluoroethyl)phenyl)carbamoyl)-1-(4-(difluoromethoxy)phenyl)-3-methyl-1H-pyrazol-5-yl 4-(1-hydroxy-2-methylpropan-2-yl)piperazine-1-carboxylate] is more than 100 nM; for `CCC(F)(F)c1cccc(NC(=O)c2nc(-c3ccc(OC(F)F)cc3)oc2C)c1` [Compound 112, 2-(4-(difluoromethoxy)phenyl)-N-(3-(1,1-difluoropropyl)phenyl)-5-methyloxazole-4-carboxamide] it is 1 to 100 nM. The figure for `CCC(F)(F)c1cccc(NC(=O)c2nc(C)c(-c3ccc(OC(F)F)cc3)nc2C)c1` [Compound 105, 5-(4-(difluoromethoxy)phenyl)-N-(3-(1,1-difluoropropyl)phenyl)-3,6-dimethylpyrazine-2-carboxamide] is more than 100 nM; for `CCC(F)(F)c1cccc(NC(=O)c2n[nH]c(-c3ccc(OC)cc3)c2Br)c1` [Compound 233] it is more than 100 nM. On to `CCC(F)(F)c1cccc(NC(=O)c2cc(C)nc(-c3ccc(OC(F)F)cc3)n2)c1` [Compound 137, 2-(4-(difluoromethoxy)phenyl)-N-(3-(1,1-difluoropropyl)phenyl)-6-methylpyrimidine-4-carboxamide], for which the IC50 is 1 to 100 nM. The figure for `CCC1(C(=O)Nc2cccc(C(C)(F)F)c2)C(=O)N(c2ccc(OC(F)F)cc2)N=C1C` (stereo not drawn) [Compound 159, N-(3-(1,1-difluoroethyl)phenyl)-1-(4-(difluoromethoxy)phenyl)-4-ethyl-3-methyl-5-oxo-4,5-dihydro-1H-pyrazole-4-carboxamide] is 1 to 100 nM; for `CCc1c(C(=O)Nc2cccc(C(C)(F)F)c2)c(C)nn1-c1ccc(OC(F)F)c(-c2ccccn2)c1` [Compound 148, N-[3-(1,1-difluoroethyl)phenyl]-1-[4-(difluoromethoxy)-3-(2-pyridyl)phenyl]-5-ethyl-3-methyl-pyrazole-4-carboxamide] it is more than 100 nM. In the case of `COc1c(C)cc(N2N=C(C)C(C(=O)Nc3cccc(C(C)(F)F)c3)C2=O)cc1-c1ccccc1` (stereo not drawn) [Compound 180, N-[3-(1,1-difluoroethyl)phenyl]-1-(4-methoxy-3-methyl-5-phenyl-phenyl)-3-methyl-5-oxo-4H-pyrazole-4-carboxamide] it was 1 to 100 nM; in that of `COc1c(C(=O)Nc2cccc(C(C)(F)F)c2)c(C)nn1-c1ccc(OC(F)F)cc1` [Compound 199, N-(3-(1,1-difluoroethyl)phenyl)-1-(4-(difluoromethoxy)phenyl)-5-methoxy-3-methyl-1H-pyrazole-4-carboxamide], 1 to 100 nM; in that of `CCC(F)(F)c1cccc(NC(=O)c2c(C)[nH]c(-c3ccc(OC)c(-c4ncccc4C)c3)[n+]2[O-])c1` [Compound 249, 4-((3-(1,1-difluoropropyl)phenyl)carbamoyl)-2-(4-methoxy-3-(3-methylpyridin-2-yl)phenyl)-5-methyl-1H-imidazole 3-oxide], less than 1 nM. In the case of `CCC(F)(F)c1cccc(NC(=O)c2c(C)[nH]c(-c3ccc(OC)cc3)[n+]2[O-])c1` [Compound 248, 4-((3-(1,1-difluoropropyl)phenyl)carbamoyl)-2-(4-methoxyphenyl)-5-methyl-1H-imidazole 3-oxide], the IC50 is less than 1 nM.

As to `Cc1nn(-c2ccc(OC(F)F)cc2)c(C2CC2)c1C(=O)Nc1cccc(C(C)(F)F)c1` [Compound 145, 5-cyclopropyl-N-[3-(1,1-difluoroethyl)phenyl]-1-[4-(difluoromethoxy)phenyl]-3-methyl-pyrazole-4-carboxamide], the IC50 was 1 to 100 nM. In the case of `CCC(F)(F)c1cccc(NC(=O)c2ncc(-c3ccc(OC(F)F)cc3)nc2C)c1` [Compound 132, 5-(4-(difluoromethoxy)phenyl)-N-(3-(1,1-difluoropropyl)phenyl)-3-methylpyrazine-2-carboxamide] it was more than 100 nM; in that of `Cc1nc(-c2ccc(OC(F)F)c(-c3ccccc3)c2)ncc1C(=O)Nc1cccc(C(C)(F)F)c1` [Compound 139, N-[3-(1,1-difluoroethyl)phenyl]-2-[4-(difluoromethoxy)-3-phenyl-phenyl]-4-methyl-pyrimidine-5-carboxamide], more than 100 nM.

For the compound `CCC(F)(F)c1cccc(NC(=O)c2cc(C)nc(-c3cc(C)cc(-c4ccccc4)c3)n2)c1` [Compound 226, N-(3-(1,1-difluoropropyl)phenyl)-6-methyl-2-(5-methyl-[1,1′-biphenyl]-3-yl)pyrimidine-4-carboxamide], the IC50 is more than 100 nM.

As to `Cc1nn(-c2ccc(OC(F)F)c(-c3cccnc3)c2)c(OC(=O)N2CCC(N3CCCCC3)CC2)c1C(=O)Nc1cccc(C(C)(F)F)c1` [Compound 190, 4-((3-(1,1-difluoroethyl)phenyl)carbamoyl)-1-(4-(difluoromethoxy)-3-(pyridin-3-yl)phenyl)-3-methyl-1H-pyrazol-5-yl [1,4′-bipiperidine]-1′-carboxylate], the IC50 fell in the range of 1 to 100 nM. In the case of `Cc1nn(-c2ccc(OC(F)F)c(-c3cocn3)c2)cc1C(=O)Nc1cccc(C(C)(F)F)c1` [Compound 149, N-(3-(1,1-difluoroethyl)phenyl)-1-(4-(difluoromethoxy)-3-(oxazol-4-yl)phenyl)-3-methyl-1H-pyrazole-4-carboxamide] it was more than 100 nM; in that of `Cc1nn(-c2ccc(OC(F)F)cc2)c(F)c1C(=O)Nc1cccc(C(C)(F)F)c1` [Compound 200, N-(3-(1,1-difluoroethyl)phenyl)-1-(4-(difluoromethoxy)phenyl)-5-fluoro-3-methyl-1H-pyrazole-4-carboxamide], more than 100 nM; in that of `COc1c(CC2CCCCC2)cc(N2N=C(C)C(C(=O)Nc3cccc(C(C)(F)F)c3)C2=O)cc1-c1ccccc1` (stereo not drawn) [Compound 129, 1-(5-(cyclohexylmethyl)-6-methoxy-[1,1′-biphenyl]-3-yl)-N-(3-(1,1-difluoroethyl)phenyl)-3-methyl-5-oxo-4,5-dihydro-1H-pyrazole-4-carboxamide], 1 to 100 nM.

For `CCC(F)(F)c1cccc(NC(=O)c2cc(-c3ccc(OC(F)F)cn3)[nH]c2C)c1` [Compound 222, 5-(5-(difluoromethoxy)pyridin-2-yl)-N-(3-(1,1-difluoropropyl)phenyl)-2-methyl-1H-pyrrole-3-carboxamide], the IC50 is more than 100 nM. For the compound `CCC(F)(F)c1cccc(NC(=O)c2nc(-c3ccc(OC(F)F)cn3)[nH]c2C)c1` [Compound 227, 2-(5-(difluoromethoxy)pyridin-2-yl)-N-(3-(1,1-difluoropropyl)phenyl)-5-methyl-1H-imidazole-4-carboxamide], the IC50 is more than 100 nM.

One may read the IC50 as the concentration at which inhibition is half-maximal.
